# Results as given in article PMC8658026, “The N-Acetylglucosamine Kinase from Yarrowia lipolytica Is a Moonlighting Protein” (International Journal of Molecular Sciences, 2021).
# Assays:
# YlNag5 (NAGA kinase) [1] = target: T1, YlNag5 (NAGA kinase) (Yarrowia lipolytica, UniProt Q6C584, F320S); assay: residual NAGA assay after incubation with extract; format: biochemical
# T1 construct: gene YALI0_E20207g
# YlNag5 (NAGA kinase) [2] = target: T2, YlNag5 (NAGA kinase) (Yarrowia lipolytica, UniProt Q6C584, D214V); assay: residual NAGA assay after incubation with extract; format: biochemical
# T2 construct: gene YALI0_E20207g
# T2 sequence (Q6C584 entry or part of it D214V): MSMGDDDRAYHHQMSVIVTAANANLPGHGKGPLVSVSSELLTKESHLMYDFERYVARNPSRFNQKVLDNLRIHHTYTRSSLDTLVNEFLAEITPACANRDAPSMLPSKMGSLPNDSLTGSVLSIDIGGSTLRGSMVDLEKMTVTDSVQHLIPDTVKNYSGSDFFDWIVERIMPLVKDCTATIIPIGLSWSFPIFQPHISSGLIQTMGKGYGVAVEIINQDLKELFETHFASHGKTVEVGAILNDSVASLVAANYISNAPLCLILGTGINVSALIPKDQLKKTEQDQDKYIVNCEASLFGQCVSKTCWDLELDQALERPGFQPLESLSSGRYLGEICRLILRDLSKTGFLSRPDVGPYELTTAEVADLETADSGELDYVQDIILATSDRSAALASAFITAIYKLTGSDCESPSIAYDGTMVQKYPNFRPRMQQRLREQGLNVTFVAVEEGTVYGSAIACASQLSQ
# T1 sequence (Q6C584 entry or part of it F320S): as the sequence (Q6C584 entry or part of it D214V) above, with V214D, F320S counted along it
smiles,measurement,setting,value
CC(=O)N[C@H]1C(O)O[C@H](CO)[C@@H](O)[C@@H]1O (some centres unmarked) [NAGA],residual NAGA assay after incubation with extract,YlNag5 (NAGA kinase) [1],strains expressing the F320S or D214V variants of YlNag5 exhibited low or moderate kinase activity
same,residual NAGA assay after incubation with extract,YlNag5 (NAGA kinase) [2],strains expressing the F320S or D214V variants of YlNag5 exhibited low or moderate kinase activity
